In paper PMC12040169 (PLOS Biology, 2025):

Test: in vitro
Conditions: human, hela cells, % viability

| SMILES | viability at 28.5 h, 10 µM | viability at 28.5 h, 10 µM (bulk resorufin, single well) |
| --- | --- | --- |
| Cc1ccc(CC(=O)N2CCCC2c2n[nH]cc2-c2ccncc2)cc1 (stereo not shown) [CBK283424] | 106% |  |
| Cc1cc(CNC(=O)C2=CC(=O)CC(C)(C)O2)no1 [CBK153281] | 104% |  |
| CCOC(=O)CNC(=O)N1CCCC1c1nc(-c2ccccc2)c2ccccn12 (stereo not shown) [CBK046502] | 103% |  |
| O=C(CCN1C(=O)/C(=C/c2ccc(F)cc2)SC1=S)NNC(=O)c1ccncc1 [CBK262821] | 92.4% |  |
| COc1ccccc1NC(=O)COc1cccc(Cl)c1Cl [CBK266029] | 106% |  |
| c1csc(-c2nccnc2OCC2COc3ccccc3O2)c1 (stereo not shown) [CBK107063] | 101% |  |
| CC(c1ccc(Cl)cc1)N(CCN(C)C)c1ccccn1 (stereo not shown) [CBK012273F] | 100% |  |
| Cc1ccccc1Cn1nc(C)c(NC(=O)c2nc3n(n2)C(C(F)F)CC(C)N3)c1C (stereo not shown) [CBK267633] | 92.6% |  |
| O=C(CCCc1ccccc1)Nc1cccnc1N1CCNCC1 [CBK028256T] | 93.1% |  |
| COc1ccccc1-c1c(O)n[nH]c1C(C)C [CBK075133] | 111% |  |
| O=[N+]([O-])c1ccccc1/C=C/CN1CCN(CCO)CC1 [CBK261863] | 85.8% |  |
| CC(C)C[C@H]1NC(=O)[C@@H]2C[C@@H](NC(=O)CS(=O)(=O)c3ccccc3)CCN2C1=O [CBK289554] | 89.1% |  |
| CN1CCN(c2nc(-c3ccco3)cnc2N)CC1 [CBK063449] | 109% |  |
| Cc1ccc(Cc2cnc(NC(=O)NCCN3CCOCC3)s2)cc1F [CBK305449] | 93.6% |  |
| CCCC(=O)NC[C@H]1CC[C@H](c2nnc(-c3ccsc3)o2)CC1 [CBK283362] | 98.9% |  |
| CSCCC(NC(=O)NCCc1ccccc1)c1nnc2ccccn12 (stereo not shown) [CBK304417] | 102% |  |
| CCc1noc(C)c1C(=O)NCc1cccnc1N(C)C1CCCCC1 [CBK306804] | 98.9% |  |
| O=C(NCC1(O)CCSCC1)c1ccc2ccccc2n1 [CBK305211] | 85% |  |
| CCN(CC)C(=O)CN1CCCN(c2nccc(OCCN3CCOCC3)n2)CC1 [CBK084094] | 99.5% |  |
| O=C1N=C(N2CCCCCC2)SC1CC(=O)N1CCCc2ccccc21 (stereo not shown) [CBK063336] | 93.4% |  |
| COc1coc(CN2C(=O)COc3cccnc32)cc1=O [CBK307126] | 96.7% |  |
| CCn1cc(Br)c(C(=O)Nc2nccs2)n1 [CBK265890] | 96.8% |  |

| SMILES | viability at 28.5 h, 10 µM | viability at 28.5 h, 10 µM (bulk resorufin, single well) |
| --- | --- | --- |
| COc1ccc(C(=O)Nc2nnc(C3=COCCO3)o2)cc1 [CBK287409] | 93.9% |  |
| COc1cccc(CNCCO)c1OCc1ccccc1F [CBK266594C] | 104% |  |
| Cc1ccccc1NCC(=O)N/N=C\c1cc(Br)c(O)c(Br)c1 [CBK262120] | 87.7% |  |
| COc1cc(S(=O)(=O)NCCCn2ccnc2)ccc1Cl [CBK269186] | 89.1% |  |
| CN(C)CCNc1c(N)c(=O)oc2ccccc12 [CBK261472] | 89.7% |  |
| O=C1Nc2cc(C(F)(F)F)ccc2N2CCCC12 (stereo not shown) [CBK288125] | 99.7% |  |
| O=C1CC[C@@H](NCc2ccccn2)[C@H](c2cc(F)cc(F)c2)N1 [CBK282911] | 98.8% |  |
| Cc1nc(-c2ccccc2)c(CC(=O)N(C)CCN(C)C)s1 [CBK282725] | 83.3% |  |
| Cc1ccc(-c2noc(CN3CCN(Cc4ccccc4)CC3)n2)cc1 [CBK267288] | 91.3% |  |
| CCOc1ccc(-c2noc(CCC(=O)NC)n2)cc1OC [CBK269226] | 86.4% |  |
| O=C(O)CC(C(=O)OC1CCCCC1)N1CCOCC1 (stereo not shown) [CBK265970] | 95.1% |  |
| COc1ccc(/C=C(/NC(=O)c2cccc(Cl)c2)C(=O)Nc2ccccc2)cc1 [CBK263342] | 107% |  |
| O=C(/C=C\c1ccco1)Oc1ccc(/C=N\NC(=O)c2cncc(Br)c2)cc1 [CBK261385] | 83.2% |  |
| O=C(Nc1cc(Oc2cccnc2)cc([N+](=O)[O-])c1)c1cc2nc(-c3ccco3)cc(C(F)(F)F)n2n1 [CBK262534] | 110% |  |
| COc1ccc2c(c1)c(C)c(C(=O)NC(C)Cc1ccccn1)n2C (stereo not shown) [CBK281425] | 98.6% |  |
| CC(Cn1cccn1)NCC(=O)NC1(C#N)CCCCC1 (stereo not shown) [CBK304845] | 102% |  |
| O=C(/C=C/c1ccccc1)NC(=S)Nc1ccc2oc(-c3ccncc3)nc2c1 [CBK263687] | 93.8% |  |
| c1ccc(-c2nc(N3CCOCC3)n3ccccc23)cc1 [CBK014407] | 89.2% |  |
| COc1cc(/C=N/N=C(/Nc2ccc(C)cc2)c2nc3ccccc3s2)ccc1O [CBK265029] | 103% |  |
| Cc1cc2nc(C(=O)NCCCn3ccnc3C(C)C)cc(C)n2n1 [CBK307022] | 90.5% |  |
| COc1ccc(NC(=O)CN2CCN(c3ccccc3OC)CC2)c([N+](=O)[O-])c1 [CBK269188] | 94.7% |  |
| Clc1ccc(-c2cncc(NCCc3ccncc3)n2)cc1 [CBK065787] | 99.5% |  |

| SMILES | viability at 28.5 h, 10 µM | viability at 28.5 h, 10 µM (bulk resorufin, single well) |
| --- | --- | --- |
| O=C(O)c1ccc(NC(=O)c2cn(-c3ccccc3)nc2-c2cc3ccccc3o2)cc1 [CBK266587C] | 106% |  |
| CC(C)(CSc1nnc(Nc2ccccc2)s1)NS(=O)(=O)c1ccc(Cl)cc1 [CBK266388] | 108% |  |
| COc1cccc(C(=O)Nc2nc(-c3ccc(S(=O)(=O)N4CCCC4)cc3)cs2)c1 [CBK096257] | 89% |  |
| CCc1cc2c(=O)c(-c3cnn(-c4ccccc4)c3)c(C(F)(F)F)oc2c(CN2CCCCC2)c1O [CBK264458] | 91.7% |  |
| Cc1cc(C(=O)NC2(C#N)CCSCC2)n(C)n1 [CBK306386] | 90.9% |  |
| COc1ccc(Cc2n[nH]c(=S)n2-c2cccnc2)cc1 [CBK288373] | 85.5% |  |
| c1ccc(C[n+]2cn3cc(-c4ccccc4)nc3[n-]2)cc1 [CBK261654] | 94% |  |
| COc1cc2c(cc1OC)C1(CCOCC1)CNC2CC(c1ccccc1)c1ccccc1 (stereo not shown) [CBK014382] | 91.4% |  |
| CC(C)(C)c1cc(C(=O)Cn2c(=N)n(Cc3ccccc3)c3ccccc32)cc(C(C)(C)C)c1O [CBK262480B] | 97.5% |  |
| Cn1cc(C(=O)N2CCCC3(C/C=C/COc4ccccc4C(=O)NCCNC3=O)C2)cn1 (stereo not shown) [CBK292102] | 96.4% |  |
| CCc1nc2ccc(C(=O)NCCCN3CCCC3=O)cn2c1N(C)C(=O)COc1ccccc1 [CBK145855] | 98.7% |  |
| O=C(O)c1ccccc1NS(=O)(=O)/C=C/c1ccccc1 [CBK042363] | 102% |  |
| COc1ccc(Oc2cncc(OC3CCN(CC4CC4)C3)n2)cc1OC (stereo not shown) [CBK084412] | 89.3% |  |
| O=C(O)c1c[nH]nc1-c1cccc(Br)c1 [CBK286963] | 91.1% |  |
| CC(C)(C)OC(=O)N1CCC2(CC1)OCc1cc(-c3cccc(OCC(=O)N4CCOCC4)c3)ccc1O2 [CBK105254] |  | 96.8% |
| CCOc1ccccc1-c1ccccc1NC(=O)c1cc(=O)n(C)c2ccccc12 [CBK285843] | 100% |  |
| Nc1ncc(-c2cccc3ccccc23)nc1Nc1ccc2[nH]ccc2c1 [CBK063659] | 90.9% |  |
| C[Si]1(C)O[Si](C)(C)O[Si](C)(CC[Si](C)(C)c2ccccc2)O[Si](C)(C)O1 [CBK260998] | 97% |  |
| Cc1noc(C)c1S(=O)(=O)NCCc1c[nH]c2ccccc12 [CBK067311] | 101% |  |
| CCC(=O)N1CCN(CCNC=C2C(=O)CC(c3cccs3)CC2=O)CC1 (stereo not shown) [CBK264817] | 97% |  |
| CS(=O)(=O)Nc1cc2ccccc2c(-c2cccnc2)n1 [CBK085747] | 108% |  |
| CC(C)CCNC(=O)N1CCNC(=O)C1 [CBK155874] | 98.3% |  |

| SMILES | viability at 28.5 h, 10 µM | viability at 28.5 h, 10 µM (bulk resorufin, single well) |
| --- | --- | --- |
| CC(=O)N1CCc2c(sc(NC(=O)c3ccc(N(C)C)cc3)c2C#N)C1 [CBK304333] | 94.7% |  |
| O=S(=O)(Nc1ccc(C(O)(C(F)(F)F)C(F)(F)F)cc1)c1ccccc1Br [CBK062101] | 96.3% |  |
| CCCn1c(SCC(=O)N2CCc3ccccc32)nc(O)cc1=O [CBK305843] | 95.4% |  |
| COC(=O)c1sc2ncccc2c1NS(=O)(=O)c1ccc(C(F)(F)F)cc1[N+](=O)[O-] [CBK049969] | 95.4% |  |
| Cc1cc(COC(=O)NCc2ccncc2)cc(C)n1 [CBK200136] | 99.4% |  |
| COc1cc(CN2CCN(c3ccccn3)CC2)ccc1O [CBK261537] | 118% |  |
| COc1ncccc1CNc1ncnc2c1cnn2CCO [CBK305980] | 116% |  |
| Cc1ccc(Nc2cc(-c3cccc(N)c3)ncn2)cc1NS(C)(=O)=O [CBK091145] | 99.1% |  |
| O=S(=O)(Nc1ccc(-c2nnn[nH]2)cc1)c1c(F)cccc1F [CBK154734] | 92.2% |  |
| COc1cc(C(=O)Nc2nc3c(s2)CC(C)CC3)cc(OC)c1OC (stereo not shown) [CBK287299] | 107% |  |
| CCCC(NC(=O)c1cccc(-n2cnnc2)c1)c1cccs1 (stereo not shown) [CBK282745] | 102% |  |
| N#Cc1ccc(-c2nc3cc(Cl)c(F)cc3[nH]2)cc1 [CBK096290] | 90.6% |  |
| COc1ccccc1NC(=O)c1c(NC(=O)c2cc([N+](=O)[O-])ccc2Cl)sc2c1CCCC2 [CBK263827] | 88.7% |  |
| O=C(COc1ccc(Cl)cc1Cl)Nc1ccc2cc[nH]c2c1 [CBK160023] | 92.5% |  |
| O=c1[nH]c2ncc(-c3cncc4ccccc34)nc2n1CCCO [CBK064814] | 96% |  |
| Cc1nc(C)c(CCC(=O)NC2CCCc3ccccc32)c(=O)[nH]1 (stereo not shown) [CBK295600] | 98.7% |  |
| O=C(CSCc1ccc(Cl)c(Cl)c1)Nc1cccnc1 [CBK268542] | 112% |  |
| Cc1ccccc1CC(=O)NCC(c1ccccc1Cl)N1CCOCC1 (stereo not shown) [CBK304564] | 85.3% |  |
| CCO[C@H]1COC[C@@H]1NC(=O)c1cccc2c1NCCC2 [CBK307113] | 94.9% |  |
| Cc1ccccc1CN1CC[C@@H]2[C@H](C1)[C@@H](c1ccc(F)cc1)CN2C(=O)c1cccs1 [CBK285546] | 86.8% |  |
| CC1(C)C[C@H](NC(=O)c2cccs2)[C@@]2(CCC(=O)N3CCCC3)CC[C@](C)(O)C[C@@H]12 [CBK289042] | 122% |  |
| CCn1c(CN2CCC(c3noc(C)n3)CC2)nc2c(F)cccc21 [CBK304960] | 91.1% |  |
